“Also recorded” adds a separate entry of the source.
What was measured:
[1] = compared with Tpo itself; literature (Blood 85:981; J interferon Cyto Res); cited from earlier work
heart = details: earlier work of the inventor, U.S. Pat. No. 7,879,318; cited from earlier work
Male Sprague Dawley rats = assay: left middle cerebral artery occlusion followed by reperfusion (focal stroke); assay type: in vivo, rat
Experimental: Male Sprague Dawley rats, 10 weeks of age (n=6/group) undergo 2-3 hours of left middle cerebral artery occlusion followed by 20-48 hours of reperfusion. Vehicle or thrombopoietin (0.03 to 1.00 μg/kg) is administered intravenously immediately after reperfusion. Brain infarct and swelling, neurologic deficits, matrix metalloproteinase-9 (MMP-9), tissue inhibitor of metalloproteinase-1 (TIMP-1), thrombopoietin and c-Mpl (thrombopoietin receptor) mRNA and protein, MMP-9 enzyme activity and protein expression, and the integrity of the blood-brain barrier are measured. Reperfusion of the left middle cerebral artery occlusion is expected to produce a large infarct and swelling after stroke.
Thrombopoietin is administered intravenously over the range 0.001-10 μg/kg. […] Stroke-induced increases in cortical MMP-9 mRNA, enzyme activity and protein expression, TIMP-1 mRNA, and Evans blue extravasation would be reduced by administration of thrombopoietin.

[2] = rat MCA occlusion/reperfusion, i.v. thrombopoietin

Compound	crossing of the blood brain barrier relative to Tpo [1]	protection of the heart against deleterious effects of ischemia/reperfusion (heart)	most effective thrombopoietin dose (Male Sprague Dawley rats; i.v., tested over the range 0.001-10 μg/kg, immediately or 2 hours after reperfusion) [µg/kg]	stroke-induced increase in Evans blue extravasation (blood-brain barrier integrity) (Male Sprague Dawley rats; [2])	stroke-induced increase in TIMP-1 mRNA (Male Sprague Dawley rats; [2])	stroke-induced increases in cortical MMP-9 mRNA, enzyme activity and protein expression (Male Sprague Dawley rats; [2])	neurologic deficits after stroke (Male Sprague Dawley rats; rat MCA occlusion/reperfusion, i.v. immediately or 2 hours after reperfusion, vs untreated controls)	infarct size and swelling (Male Sprague Dawley rats; rat, 2-3 h MCA occlusion, 20-48 h reperfusion, thrombopoietin i.v. immediately or 2 hours after reperfusion, vs untreated controls)
romiplostim	cross the blood brain barrier more effectively than does Tpo itself							
Thrombopoietin		protects the heart against various deleterious effects of ischemia/reperfusion	0.05 to 1.0	reduced	reduced	reduced	ameliorate	significantly reduces these indices of injury to the brain in a dose-dependent manner; also recorded: significantly reduce
CC1=NN(c2ccc(C)c(C)c2)C(=O)/C1=N\Nc1cccc(-c2cccc(C(=O)O)c2)c1O [eltrombopag]	cross the blood brain barrier more effectively than does Tpo itself							

From patent US20160176961A1, “THROMBOPOIETIN RECEPTOR LIGANDS FOR NEUROPROTECTION” (MCW Research Foundation, Inc., priority 2011, published 2016)
